# Source: US20050019836A1, “Bioanalytical reagent, method for production thereof, sensor platforms and detection methods based on use of said bioanalytical reagent” (priority 2000, published 2005)
# Assays:
# 5HT3A receptor [1] = biological target: T1, 5HT3A receptor (Mus musculus, UniProt P23979); assay: competitive radiological binding assay with [3H]-GR65630, receptor in "native" vesicles in solution
# T1 construct: Transient expression of the full wild-type receptor was achieved by co-transfection; expressed in transfected cells; host or cells: HEK293
# T1 sequence (P23979 24-489): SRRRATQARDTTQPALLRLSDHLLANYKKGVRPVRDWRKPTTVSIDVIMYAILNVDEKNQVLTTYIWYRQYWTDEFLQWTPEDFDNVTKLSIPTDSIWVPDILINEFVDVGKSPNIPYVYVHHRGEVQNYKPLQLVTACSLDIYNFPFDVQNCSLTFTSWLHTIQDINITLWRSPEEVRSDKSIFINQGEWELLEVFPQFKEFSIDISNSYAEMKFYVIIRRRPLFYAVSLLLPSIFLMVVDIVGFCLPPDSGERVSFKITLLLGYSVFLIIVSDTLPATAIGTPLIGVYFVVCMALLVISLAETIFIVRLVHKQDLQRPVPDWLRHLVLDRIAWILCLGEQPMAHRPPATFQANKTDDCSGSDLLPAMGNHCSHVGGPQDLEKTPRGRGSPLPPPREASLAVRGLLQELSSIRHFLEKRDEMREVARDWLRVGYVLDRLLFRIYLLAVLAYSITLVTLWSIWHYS
# Procedure: To this end, samples of said reagent were incubated with the vesicles in solution for 60 minutes at room temperature with 1.5 nM of the tritium-labeled ligand [^3H]-GR65630 in 240 μl HEPES buffer (10 mM HEPES, pH 7.4) (HEPES: 4-(2-hydroxyethyl)piperazine-1-ethanesulfonic acid) in 96-well MultiScreen plates (Millipore, F-Molsheim). The incubation was completed by rapid filtration followed by washing 3 times with 300 μl of ice-cold HEPES buffer each time. The filters were transferred to scintillation vessels and each taken up in 1 ml of Ultima Gold TM (Packard, meridan, USA). The radioactivity was measured using a TriCarb 2200CA liquid scintillation counter. The extent of nonspecific binding to the receptor and to the vesicles was estimated in the presence of a high surplus of quipazine (1 μM). The dissociation constant Kd was determined from Scatchard plots in 6 different concentrations of the ligand [^3H]-GR65630. […] All experiments were carried out in duplicate.
# 5HT3A receptor [2] = biological target: T1, 5HT3A receptor; assay: competitive radiological binding assay with [3H]-GR65630, receptor in whole mother cells
# 5HT3A receptor [3] = biological target: T1, 5HT3A receptor; assay: fluorescent ligand binding to surface-immobilized "native" vesicles (confocal fluorescence microscopy); conditions: individual discrete immobilized vesicles (n=3) from HEK293 cells; fit with Langmuir isotherm; read-out: dissociation constant Kd
# Procedure: The ligand-binding experiments in surface-immobilized vesicles were carried out using the fluorescence-labeled ligand GR-Cy5. For these experiments, a homologous serotonin receptor construct 5HT3A was used that was expressed with an EGFP (Enhanced Green Fluorescent Protein, Clontech) fused at the end of a subunit. The prepared “native” vesicles were immobilized on cover glasses by means of physical adsorption of the vesicles to the glasses, by two-hour or overnight incubation of typically 400 μl of a vesicle preparation solution prepared according to the above method in 6-well plates with cover glasses on the bottom at 4° C. […]
# The affinity of the fluorescent ligand for receptors bound to individual, discrete vesicles was determined by sequential addition of ascending concentrations of the fluorescent ligand to one and the same cover glass with vesicles immobilized thereon by overnight incubation. […]
# The fluorescence intensities of the ligand were measured with a confocal fluorescence microscope (Zeiss, Laser Scanning Microscope LSM510), using a suitable filter set. The fluorescence signal of the GFP additionally incorporated into the vesicles was used in each case to adjust the microscope to the working distance of the plane in which the vesicles lay before the ligand was added. […]
# 5HT3A serotonin receptor = biological target: T2, 5HT3A serotonin receptor (Mus musculus, UniProt P23979); assay: agonist-induced calcium signal (Fluo-3) in "native" vesicles with incorporated 5HT3A receptor; format: cell-based; conditions: 350 μM agonist; Fluo-3 loaded vesicles
# T2 construct: expressed in transfected cells; host or cells: HEK cells
# T2 sequence (P23979 24-489): T1 sequence (P23979 24-489)
# Procedure: In this case, the original HEK cells from which the vesicles were obtained following the addition of cytochalasin according to the method described hereinabove were loaded with the acetoxymethyl ester of Fluo-3 as calcium indicator (generally 20 μg Fluo-3 in 500 μl DMEM/F12 medium). The prepared vesicles contained said fluorescent calcium indicator and parts of the endoplasmic reticulum in addition to the 5HT3A receptor.
# Fluorescence excitation of the Fluo-3 was performed at 488 nm. The emission was measured at 500-530 nm. The vesicles loaded with Fluo-3 were then stimulated with 350 μM m-chlorophenylbiguanide hydrochloride (mCPG), a receptor-specific agonist. Stimulation was performed by addition of the agonist to the vesicle medium (t=0 sec). The maximum fluorescence signal that occurred through binding of the calcium to the calcium indicator Fluo-3 was already measured less than one minute after addition of the agonist. The value amounted to 35 μM free calcium ions in the vesicle interior, i.e. in the cytosol surrounded by the vesicle. With the aid of calcium indicator Fluo-3, free calcium ions are detected only in the cytosol (vesicle lumen) transferred from the cell of origin. Calcium ions in the endoplasmic reticulum or in other cell organelles or parts of cell organelles possibly included in the vesicle are not determined by this detection method.
# The increase in the fluorescence signal up to its maximum value after less than one minute and the subsequent decrease in the fluorescence signal to its baseline value after a further 2 minutes, i.e. after a total of 3 minutes following addition of the agonist, is a sign of the intact functional capacity of the complete mechanism of the signal transduction cascade within the vesicle, i.e. of the ability of the vesicle to “buffer” the concentration of free calcium ions. This includes the action of sodium-calcium exchangers, in addition to the timespan until closure of the receptor's ion channel and desensitization mechanisms characteristic of serotonin.
# [4] = vesicles from HEK293 cells in solution, competition with 1.5 nM [3H]-GR65630, 60 min, room temperature
# [5] = HEK293 mother cells, competition with 1.5 nM [3H]-GR65630, 60 min, room temperature
# [6] = vesicles from HEK293 cells in solution, competition with 1.5 nM [3H]-GR65630, 60 min, room temperature, read-out: pKi, receptor in "native" vesicles (converted)
# [7] = HEK293 mother cells, competition with 1.5 nM [3H]-GR65630, 60 min, room temperature, read-out: pKi, receptor in mother cell (converted)
molecule,measurement,setting,value
Cc1[nH]cnc1CCC(=O)c1cn(C)c2ccccc12 [[^3H]-GR65630],"pKi, receptor in ""native"" vesicles",5HT3A receptor [1]; [4],9.4 ± 0.1
same,"pKi, receptor in mother cell",5HT3A receptor [2]; [5],9.0 ± 0.1
"1,2,3,9-tetrahydro-3-[(5-methyl-1H-imidazol-4-yl)methyl]-9-(3-amino-(N-rhodamineB-thiocarbamoyl)-propyl)-4H-carbazol-4-one [GR-Rho]",Kd,5HT3A receptor [3],4.2 nM
"Cc1nccn1CC1CCc2c(c3ccccc3n2C)C1=O (stereo not shown) [Ondansetron, 1,2,3,9-tetrahydro-9-methyl-3-[(2-methyl-1H-imidazol-1-yl)methyl]-4H-carbazol-4-one]",Ki,5HT3A receptor [1],2.51 nM
same,Ki,5HT3A receptor [2],3.16 nM
"N=C(N)NC(=N)Nc1ccccc1 [PBG, Phenylbiguanide]",Ki,5HT3A receptor [1]; [6],251 nM
same,Ki,5HT3A receptor [2]; [7],316 nM
"Cl.N=C(N)NC(=N)Nc1cccc(Cl)c1 [mCPG, m-chlorophenylbiguanide hydrochloride]",free calcium ions in the vesicle interior at maximum fluorescence signal,5HT3A serotonin receptor,35 µM
same,time to maximum fluorescence signal after addition of the agonist,5HT3A serotonin receptor,less than one
same,total time until decrease of fluorescence signal to baseline value after addition of the agonist,5HT3A serotonin receptor,3 min
"N=C(N)NC(=N)Nc1cccc(Cl)c1 [mCPBG, m-Chlorophenylbiguanide]","pKi, receptor in ""native"" vesicles",5HT3A receptor [1]; [4],8.3 ± 0.1
same,"pKi, receptor in mother cell",5HT3A receptor [2]; [5],8.2 ± 0.1
Cc1[nH]cnc1CC1CCc2c(c3ccccc3n2CCCN)C1=O (stereo not shown) [GR-H],Ki,5HT3A receptor [1],0.2 nM
same,Ki,5HT3A receptor [2],0.0631 nM
"c1ccc2nc(N3CCNCC3)ccc2c1 [Quipazine, 2-(1-Piperazinyl)quinoline]",Ki,5HT3A receptor [1]; [6],0.398 nM
same,Ki,5HT3A receptor [2]; [7],0.501 nM
